Assay results: patent US8697869B2, “3-(heteroaryl-amino)-1,2,3,4-tetrahydro-9H-carbazole derivatives and their use as prostaglandin D2 receptor modulators” (Actelion Pharmaceuticals Ltd., priority 2010, dated 2014)

Experiments:
[1] = target: T1, hCRTH2 receptor (Homo sapiens (Human), UniProt Q9Y5Y4); test: hCRTH2 receptor membranes radioligand displacement assay (3H-PGD2); details: 3H-PGD2 2.5 nM, HEK293-hCRTH2 membranes, Binding-Buffer with 0.1% BSA
Experimental: Biological Assays: Preparation of hCRTH2 Receptor Membranes and Radioligand Displacement Assay:
(§1) First, recombinant HEK293-hCRTH2 cells were detached from culture plates into 5 ml buffer A/plate (Buffer A: 5 mM Tris, 1 mM MgCl2-6H2O pH=7.4) using a rubber policeman. Cells were then transferred into centrifugation tubes and centrifuged for 5 min at 400 g. The cell pellet was resuspended in the same buffer and tubes were frozen at −80° C. Cells were thawed and membrane fragments were generated by homogenization using a polytron homogenizer (30 seconds). The membrane fragments were then centrifuged at 3000 g for 20 minutes and resuspended in buffer C (Buffer C: 75 mM Tris, 25 mM MgCl2, 250 mM Saccharose pH 7.4). Aliquots of membrane fragements were stored at −20° C.
(§2) Binding assay was performed in a final assay volume of 250 μl. First, 25 μl of test compound, previously diluted in Binding-Buffer (Binding-Buffer: 50 mM Tris-Base, 100 mM NaCl, 1 mM EDTA, 0.1% BSA (protease free), 0.01% NaN3, 10 mM MnCl2 pH 7.0) was placed into each well. After addition of 75 μl Binding-Buffer, 50 μl of the radioligand ^3H-PGD2 (at 2.5 nM (220.000 dpm/well) from ANAWA ART0662) was added to each well. Binding assay was started by addition of 100 μl CRTH2 membrane fragments, reaching a final concentration of 20 μg/well. For non-specific binding, PGD2 was added to the reaction mixture to […] final concentration. This assay mix was incubated for 90 minutes at room temperature and then filtered through a GF/C filter 96-well plate which was pre-soaked for 3 hours in 0.5% polyethyleneimine (PEI). The filter-wells were washed three times with ice cold Binding-Buffer. Then, 40 μl of Microscint-40 (Packard) was added to each well and the retained radioactivity quantified in a Topcount (Packard).

[2] = target: T1, hCRTH2 receptor; test: Radioligand displacement assay in presence of human serum albumin (HSA); details: 3H-PGD2 2.5 nM, Binding-Buffer with 0.5% HSA instead of 0.1% BSA
Experimental: as §1, §2
Radioligand Displacement Assay-Human Serum Albumin (HSA):
Radioligand displacement assay in presence of human serum albumin (HSA) was performed as described above, with following modifications. Binding-Buffer-HSA: Binding-buffer+0.5% Sigma Albumin from Human serum A1887 (instead of 0.1% BSA). A volume of 25 μl test compound, previously diluted in Binding-Buffer-HSA was placed into each well. After addition of 75 μl Binding-Buffer-HSA, 50 μl of ^3H-PGD2 (at 2.5 nM (220.000 dpm/well) from ANAWA ART0662) was added to each well. Remaining protocol was identical as described above.

[3] = tested on: eosinophils; test: Eosinophil shape change assay with human plasma; assay type: cell-based; details: human polymorphonuclear cells, 50% human plasma, activated with 100 nM PGD2
Experimental: After obtaining informed consent, blood samples were drawn by venipuncture according to the protocol approved by the ethics committee of Basel, Switzerland. Polymorphonuclear leukocytes (containing eosinophils, basophils and neutrophils) were isolated using the Polymorphprep™ method (Axis-Shield). In brief, anticoagulated whole blood was layered onto a Polymorphprep gradient (density 1.113 g/ml) and centrifuged at 500 g for 30 min. The polymorphonuclear cell fraction was harvested and depleted for erythrocytes by hypotonic saline lysis.
The polymorphonuclear cells were resuspended in assay buffer (1×PBS with Ca^2+/Mg^2+ supplemented with 0.1% BSA, 10 mM HEPES, and 10 mM Glucose, pH 7.4) at 5×10^6 cells/ml and stained with anti-CD49d-APC ((APC=Allophycocyanin) for 1 hour at RT. Test compounds, at various concentrations, were preincubated 10 min in human plasma (anticoagulated with a thrombin inhibitor). Then, human plasma was added to the polymorphonuclear cells to 50% of final assay volume with polymorphonuclear cells at 4×10^6 cells/rd. After incubation for 10 minutes at 37° C., the polymorphonuclear cells were activated for 5 min at 37° C. by addition of PGD2 at 100 nM final concentration. Activation was stopped by addition of 0.5 ml paraformaldehyde (1%).
Immediately after fixation with paraformaldehyde, the samples were analyzed by FACSCanto flow cytometer (BD Biosciences) and target cells were identified by their forward-scatter (FSC) and side-scatter (SSC) characteristics. Eosinophils were identified by the anti-CD49d-APC signal and their characteristic side-scatter (SSC) profile. Shape change responses, indicative of eosinophil activation, were quantified as the percent of cells with an increased forward-scatter.

T1 sequence (Q9Y5Y4 whole entry): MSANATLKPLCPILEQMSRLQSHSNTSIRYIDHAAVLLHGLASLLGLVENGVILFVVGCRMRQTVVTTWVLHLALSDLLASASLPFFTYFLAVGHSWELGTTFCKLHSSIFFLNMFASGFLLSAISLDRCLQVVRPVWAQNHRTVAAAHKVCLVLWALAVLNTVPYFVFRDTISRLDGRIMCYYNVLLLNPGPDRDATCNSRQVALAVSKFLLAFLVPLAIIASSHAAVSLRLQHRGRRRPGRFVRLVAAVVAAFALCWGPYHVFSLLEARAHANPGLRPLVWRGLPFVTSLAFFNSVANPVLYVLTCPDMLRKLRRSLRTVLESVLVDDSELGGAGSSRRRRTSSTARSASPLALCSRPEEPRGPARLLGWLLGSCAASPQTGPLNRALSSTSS

Structure (SMILES) | IC50 [1] [nM] | IC50 [2] [nM] | IC50 ([3]; Eosinophil) [nM] | IC50 [3] [nM]
CN(c1nc2cc(Cl)ccc2s1)[C@H]1CCc2c(c3cc(F)ccc3n2CC(=O)O)C1 [Example 33, (3S)-2-(3-((5-chlorobenzo[d]thiazol-2-yl)(methyl)amino)-6-fluoro-3,4-dihydro-1H-carbazol-9(2H)-yl)acetic acid] | 10 | 8 | 46 | 
O=C(O)Cn1c2c(c3cc(F)ccc31)C[C@H](Nc1ncc(Cl)cn1)CC2 [Example 4, (3R)-2-(6-fluoro-3-((5-chloropyrimidin-2-yl)amino)-3,4-dihydro-1H-carbazol-9-(2H)-yl)acetic acid] | 13 | 27 |  | 722
O=C(O)Cn1c2c(c3cc(F)ccc31)C[C@@H](Nc1ncc(Cl)cn1)CC2 [Example 3, (3S)-2-(6-fluoro-3-((5-chloropyrimidin-2-yl)amino)-3,4-dihydro-1H-carbazol-9-(2H)-yl)acetic acid] | 4.6 | 23 |  | 41
CN(c1ncccn1)[C@H]1CCc2c(c3cc(F)ccc3n2CC(=O)O)C1 [Example 15, (3S)-2-(6-fluoro-3-(methyl(pyrimidin-2-yl)amino)-3,4-dihydro-1H-carbazol-9(2H)-yl)acetic acid] | 9.9 | 35 | 66 | 
CN(c1nc2cc(F)ccc2s1)[C@H]1CCc2c(c3cc(F)ccc3n2CC(=O)O)C1 [Example 39, (3S)-2-(6-fluoro-3-((5-fluorobenzo[d]thiazol-2-yl)(methyl)amino)-3,4-dihydro-1H-carbazol-9(2H)-yl)acetic acid] | 3.1 | 6 | 16 | 

These reach a lower IC50 [1]. Values come first.

IC50 [1] [nM] | IC50 [2] [nM] | IC50 ([3]; Eosinophil) [nM] | IC50 [3] [nM] | Structure (SMILES)
2.2 | 36 | 19 |  | CN(c1ncc(C2CC2)cn1)[C@H]1CCc2c(c3cc(F)ccc3n2CC(=O)O)C1 [Example 42, (3S)-2-(3-((5-cyclopropylpyrimidin-2-yl)(methyl)amino)-6-fluoro-3,4-dihydro-1H-carbazol-9(2H)-yl)acetic acid]
1.2 | 9 | 2 |  | CN(c1nc2ccc(F)cc2s1)[C@H]1CCc2c(c3cc(F)ccc3n2CC(=O)O)C1 [Example 38, (3S)-2-(6-fluoro-3-((6-fluorobenzo[d]thiazol-2-yl)(methyl)amino)-3,4-dihydro-1H-carbazol-9(2H)-yl)acetic acid]
2 | 15 | 49 |  | CN(c1ncc(C(F)(F)F)cn1)[C@H]1CCc2c(c3cc(F)ccc3n2CC(=O)O)C1 [Example 11, (3S)-2-(6-fluoro-3-(methyl(5-(trifluoromethyl)pyrimidin-2-yl)amino)-3,4-dihydro-1H-carbazol-9(2H)-yl)acetic acid]
